Experiment: in vitro Li delivery through pig skin in a flow-through Li-AgCl cell (protected Li metal foil donor electrode)
Assay type: in vitro ADME
Experimental: The glass receptor compartment was similar to one described by Phipps et al. (1988) Solid State Ionics 28-30: 1778-1783, for ionophoretic drug delivery experiments. The receptor compartment was filled with RPMI-1640 Medium (Sigma Aldrich). The antibiotic gentamicin sulphate was added to the receptor compartment fluid to inhibit bacterial growth.
The prepared skin was stored in RPMI-1640 medium overnight before the start of the experiment. The skin was placed on the receptor chamber and kept in place and stretched out with an O-ring around the neck of the chamber. The visceral surface of the skin was in contact with the receptor fluid.
A square 1 cm×1 cm silver chloride cathode with a capacity of approximately 40 mAh was introduced into the receptor chamber through a port. A multi-channel peristaltic pump was used to create a flow of the RPMI-1640 medium through receptor compartments of several cells. In our experiments we used a flow rate of 2.1 mL/hr. Periodic sampling of the receptor compartment fluid was performed automatically. The temperature inside the water-jacketed receptor compartment was kept at 37° C. The fluid inside the receptor compartment was stirred with a magnetic stir bar.
The donor chamber was positioned over the skin. It contained Li metal foil and a protective architecture enabling the use of Li in an aqueous environment. The protective architecture comprised a 150 micron thick barrier layer composed of a glass ceramic solid electrolyte plate (AG-01 material from OHARA Corporation with ionic conductivity of ˜10^−4 S/cm) and an anolyte interlayer located between the Li surface and the glass ceramic plate barrier layer. […]
The donor-acceptor chamber assembly was kept in place using a clamp. […] Li content in the fluid samples taken from receptor compartment was analyzed by ICP-MS.
The rate of Li delivery into the receptor compartment was calculated as a product of Li concentration and the flow rate of the receptor fluid.

With `[Li]` [Li, lithium] the “Li content in receptor fluid samples, comparison of current densities” value (0.2 mA/cm^2 vs 0.1 mA/cm^2, FIG. 9) was “significantly larger for the rate of 0.2 mA/cm^2 than for 0.1 mA/cm^2”, the “initial Li content of the receptor solution” value (before current passing) was no more than 6 µg/L and the “Li content in receptor fluid samples over time” value (constant current 0.1 mA/cm^2 (27 hrs) and 0.2 mA/cm^2 (24 hrs), 37° C., RPMI-1640 receptor fluid, ICP-MS, FIG. 9) was “gradually increased over time”.

From patent US8332028B2, “Protected lithium electrodes for electro-transport drug delivery” (PolyPlus Battery Company, priority 2006, dated 2012)
